Measured values reported in US8404708B2, “Dual NK1/NK3 receptor antagonists” (Hoffmann-La Roche Inc., priority 2004, dated 2013).
Where two headings read alike, the source gives them in different places.

Key:
[1] = biological target: human NK1 receptor (Homo sapiens, UniProt P25103); assay: NK1 receptor binding, [3H]substance P displacement, CHO cell membranes
[2] = biological target: T1, Recombinant human NK3 (hNK3) receptor (Homo sapiens, UniProt P29371); assay: NK3 receptor binding, [3H]SR142801 displacement, membrane preparations
T1 construct: expressed in transfected cells
T1 sequence (P29371 1-465): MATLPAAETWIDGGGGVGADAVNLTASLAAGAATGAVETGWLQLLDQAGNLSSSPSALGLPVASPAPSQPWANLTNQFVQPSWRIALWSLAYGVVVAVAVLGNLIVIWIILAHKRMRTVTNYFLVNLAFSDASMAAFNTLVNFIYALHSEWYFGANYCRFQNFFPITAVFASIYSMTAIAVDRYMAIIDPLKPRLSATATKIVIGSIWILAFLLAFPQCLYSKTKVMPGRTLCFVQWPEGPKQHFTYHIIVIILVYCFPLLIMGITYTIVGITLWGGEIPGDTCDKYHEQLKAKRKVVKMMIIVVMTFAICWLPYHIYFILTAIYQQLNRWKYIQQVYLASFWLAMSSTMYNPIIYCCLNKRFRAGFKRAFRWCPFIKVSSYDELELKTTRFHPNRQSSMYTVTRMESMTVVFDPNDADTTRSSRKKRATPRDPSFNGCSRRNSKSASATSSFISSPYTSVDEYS
How it was run: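 Buffer: Tris-HCl 50 mM pH 7.4, BSA 0.1%, MnCl2 4 mM, phosphoramidon 1 μM. ~2.5 μg membrane/well, 90 min RT. NSB with SB222200 (10 μM). Vacuum filtration over 0.3% PEI-treated GF/C, cold Tris/BSA washes, scintillation count; duplicates, ≥2 experiments.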

[3] = first value of the cell pKi NK1/NK3, human NK1 receptor, [3H]substance P
[4] = second value of the cell pKi NK1/NK3, hNK3 receptor, [3H]SR142801
[5] = first value of the cell NK1/NK3, read-out: pKi NK1 (converted)
[6] = second value of the cell NK1/NK3, read-out: pKi NK3 (converted)

Chain of human NK1 receptor (P25103 whole entry): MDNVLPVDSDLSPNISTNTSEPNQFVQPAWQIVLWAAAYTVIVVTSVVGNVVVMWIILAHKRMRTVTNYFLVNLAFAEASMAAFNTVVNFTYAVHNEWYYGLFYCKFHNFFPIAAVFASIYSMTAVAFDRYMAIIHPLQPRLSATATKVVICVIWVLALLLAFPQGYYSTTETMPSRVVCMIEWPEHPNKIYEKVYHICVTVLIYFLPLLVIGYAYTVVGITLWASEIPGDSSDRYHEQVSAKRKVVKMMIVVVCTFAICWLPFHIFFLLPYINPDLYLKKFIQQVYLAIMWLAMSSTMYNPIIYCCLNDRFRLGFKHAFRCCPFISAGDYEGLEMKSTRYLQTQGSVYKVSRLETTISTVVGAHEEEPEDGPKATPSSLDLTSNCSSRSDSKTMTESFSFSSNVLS

| Ki [1, 3] | Ki [2, 4] | Ki [1, 5] | Ki [2, 6] | Structure (SMILES) |
| --- | --- | --- | --- | --- |
| 1.62 nM | 3.24 nM |  |  | CN(C(=O)C(C)(C)c1cc(C(F)(F)F)cc(C(F)(F)F)c1)c1cnc(N2C[C@H](O)C[C@@H](O)C2)cc1-c1ccccc1Cl [Example 180, (3R,5R)-2-(3,5-Bis-trifluoromethyl-phenyl)-N-[4′-(2-chloro-phenyl)-3,5-dihydroxy-3,4,5,6-tetrahydro-2H-[1,2′]bipyridinyl-5′-yl]-N-methyl-isobutyramide] |
| 2 nM | 3.39 nM |  |  | CN(C(=O)C(C)(C)c1cc(C(F)(F)F)cc(C(F)(F)F)c1)c1cnc(N2C[C@H](O)C[C@H](O)C2)cc1-c1ccccc1Cl [Example 181] |
| 0.933 nM | 32.4 nM |  |  | CN(C(=O)C(C)(C)c1cc(C(F)(F)F)cc(C(F)(F)F)c1)c1cnc(N2C[C@H](O)[C@@H](O)C2)cc1-c1ccccc1Cl [Example 182, (3S,4S)-2-(3,5-Bis-trifluoromethyl-phenyl)-N-[4-(2-chloro-phenyl)-6-(3,4-dihydroxy-pyrrolidin-1-yl)-pyridin-3-yl]-N-methyl-isobutyramide] |
| 1.1 nM | 26.9 nM |  |  | Cc1ccccc1-c1cc(N2C[C@H](O)[C@@H](O)C2)ncc1N(C)C(=O)C(C)(C)c1cc(C(F)(F)F)cc(C(F)(F)F)c1 [Example 183, (3S,4S)-2-(3,5-Bis-trifluoromethyl-phenyl)-N-[6-(3,4-dihydroxy-pyrrolidin-1-yl)-4-o-tolyl-pyridin-3-yl]-N-methyl-isobutyramide] |
| 1.23 nM | 20 nM |  |  | Cc1ccccc1-c1cc(N2C[C@@H](O)[C@@H](O)C2)ncc1N(C)C(=O)C(C)(C)c1cc(C(F)(F)F)cc(C(F)(F)F)c1 [Example 184, (3R,4S)-2-(3,5-Bis-trifluoromethyl-phenyl)-N-[6-(3,4-dihydroxy-pyrrolidin-1-yl)-4-o-tolyl-pyridin-3-yl]-N-methyl-isobutyramide] |
| 1.74 nM | 4.57 nM |  |  | Cc1cc(F)ccc1-c1cc(N(C)C(CO)CO)ncc1N(C)C(=O)C(C)(C)c1cc(C(F)(F)F)cc(C(F)(F)F)c1 [Example 196, 2-(3,5-Bis-trifluoromethyl-phenyl)-N-{4-(4-fluoro-2-methyl-phenyl)-6-[(2-hydroxy-1-hydroxymethyl-ethyl)-methyl-amino]-pyridin-3-yl}-N-methyl-isobutyramide] |
| 2.88 nM | 3.89 nM |  |  | Cc1cc(F)ccc1-c1cc(N2[C@H](CO)CC[C@@H]2CO)ncc1N(C)C(=O)C(C)(C)c1cc(C(F)(F)F)cc(C(F)(F)F)c1 [Example 197, (2R,5S)-N-[6-(2,5-Bis-hydroxymethyl-pyrrolidin-1-yl)-4-(4-fluoro-2-methyl-phenyl)-pyridin-3-yl]-2-(3,5-bis-trifluoromethyl-phenyl)-N-methyl-isobutyramide] |
| 1.78 nM | 1.1 nM |  |  | Cc1cc(F)ccc1-c1cc(N2[C@H](CO)CC[C@H]2CO)ncc1N(C)C(=O)C(C)(C)c1cc(C(F)(F)F)cc(C(F)(F)F)c1 [Example 198, (2S,5S)-N-[6-(2,5-Bis-hydroxymethyl-pyrrolidin-1-yl)-4-(4-fluoro-2-methyl-phenyl)-pyridin-3-yl]-2-(3,5-bis-trifluoromethyl-phenyl)-N-methyl-isobutyramide] |
| 2.51 nM | 15.5 nM |  |  | Cc1cc(F)ccc1-c1cc(N2[C@@H](CO)CC[C@@H]2CO)ncc1N(C)C(=O)C(C)(C)c1cc(C(F)(F)F)cc(C(F)(F)F)c1 [Example 199, (2R,5R)-N-[6-(2,5-Bis-hydroxymethyl-pyrrolidin-1-yl)-4-(4-fluoro-2-methyl-phenyl)-pyridin-3-yl]-2-(3,5-bis-trifluoromethyl-phenyl)-N-methyl-isobutyramide] |
| 2.34 nM | 18.2 nM |  |  | Cc1ccc(-c2cc(N3C[C@H](O)C[C@H]3CO)ncc2N(C)C(=O)C(C)(C)c2cc(C(F)(F)F)cc(C(F)(F)F)c2)cc1 [Example 200, (2S,4R)-2-(3,5-Bis-trifluoromethyl-phenyl)-N-[6-(4-hydroxy-2-hydroxymethyl-pyrrolidin-1-yl)-4-p-tolyl-pyridin-3-yl]-N-methyl-isobutyramide] |
| 1.48 nM | 8.71 nM |  |  | CN(C(=O)C(C)(C)c1cc(C(F)(F)F)cc(C(F)(F)F)c1)c1cnc(N2C[C@H](O)C[C@H]2CO)cc1-c1ccccc1 [Example 201, (2S,4R)-2-(3,5-Bis-trifluoromethyl-phenyl)-N-[6-(4-hydroxy-2-hydroxymethyl-pyrrolidin-1-yl)-4-phenyl-pyridin-3-yl]-N-methyl-isobutyramide] |
| 1.2 nM | 7.41 nM |  |  | CN(C(=O)C(C)(C)c1cc(C(F)(F)F)cc(C(F)(F)F)c1)c1cnc(N2C[C@H](O)C[C@H]2CO)cc1-c1ccc(F)cc1 [Example 202, (2S,4R)-2-(3,5-Bis-trifluoromethyl-phenyl)-N-[4-(4-fluoro-phenyl)-6-(4-hydroxy-2-hydroxymethyl-pyrrolidin-1-yl)-pyridin-3-yl]-N-methyl-isobutyramide] |
| 2.04 nM | 10.5 nM |  |  | CN(C(=O)C(C)(C)c1cc(C(F)(F)F)cc(C(F)(F)F)c1)c1cnc(N2C[C@H](O)C[C@H]2CO)cc1-c1ccc(Cl)cc1 [Example 203, (2S,4R)-2-(3,5-Bis-trifluoromethyl-phenyl)-N-[4-(4-chloro-phenyl)-6-(4-hydroxy-2-hydroxymethyl-pyrrolidin-1-yl)-pyridin-3-yl]-N-methyl-isobutyramide] |
| 15.1 nM | 14.8 nM |  |  | CN(C)c1ccc(-c2cc(N3C[C@H](O)C[C@H]3CO)ncc2N(C)C(=O)C(C)(C)c2cc(C(F)(F)F)cc(C(F)(F)F)c2)cc1 [Example 204, (2S,4R)-2-(3,5-Bis-trifluoromethyl-phenyl)-N-[4-(4-dimethylamino-phenyl)-6-(4-hydroxy-2-hydroxymethyl-pyrrolidin-1-yl)-pyridin-3-yl]-N-methyl-isobutyramide] |
| 1.95 nM | 8.51 nM |  |  | CN(C(=O)C(C)(C)c1cc(C(F)(F)F)cc(C(F)(F)F)c1)c1cnc(N2C[C@H](O)C[C@H]2CO)cc1-c1cccc(Br)c1 [Example 205, (2S,4R)-2-(3,5-Bis-trifluoromethyl-phenyl)-N-[4-(3-bromo-phenyl)-6-(4-hydroxy-2-hydroxymethyl-pyrrolidin-1-yl)-pyridin-3-yl]-N-methyl-isobutyramide] |
| 1.86 nM | 15.8 nM |  |  | CN(C(=O)C(C)(C)c1cc(C(F)(F)F)cc(C(F)(F)F)c1)c1cnc(N2C[C@H](O)C[C@H]2CO)cc1-c1cccc(Cl)c1 [Example 206, (2S,4R)-2-(3,5-Bis-trifluoromethyl-phenyl)-N-[4-(3-chloro-phenyl)-6-(4-hydroxy-2-hydroxymethyl-pyrrolidin-1-yl)-pyridin-3-yl]-N-methyl-isobutyramide] |
|  |  | 1.38 nM | 4.68 nM | CN(C(=O)C(C)(C)c1cc(C(F)(F)F)cc(C(F)(F)F)c1)c1cnc(N2C[C@H](O)C[C@H]2CO)cc1-c1cccc(F)c1 [Example 207, (2S,4R)-2-(3,5-Bis-trifluoromethyl-phenyl)-N-[4-(3-fluoro-phenyl)-6-(4-hydroxy-2-hydroxymethyl-pyrrolidin-1-yl)-pyridin-3-yl]-N-methyl-isobutyramide] |
|  |  | 1.35 nM | 6.17 nM | CN(C(=O)C(C)(C)c1cc(C(F)(F)F)cc(C(F)(F)F)c1)c1cnc(N2C[C@H](O)C[C@H]2CO)cc1-c1cc(F)cc(F)c1 [Example 208, (2S,4R)-2-(3,5-Bis-trifluoromethyl-phenyl)-N-[4-(3,5-difluoro-phenyl)-6-(4-hydroxy-2-hydroxymethyl-pyrrolidin-1-yl)-pyridin-3-yl]-N-methyl-isobutyramide] |
|  |  | 1.35 nM | 3.47 nM | CN(C(=O)C(C)(C)c1cc(C(F)(F)F)cc(C(F)(F)F)c1)c1cnc(N2C[C@H](O)C[C@H]2CO)cc1-c1ccc(F)c(F)c1 [Example 209, (2S,4R)-2-(3,5-Bis-trifluoromethyl-phenyl)-N-[4-(3,4-difluoro-phenyl)-6-(4-hydroxy-2-hydroxymethyl-pyrrolidin-1-yl)-pyridin-3-yl]-N-methyl-isobutyramide] |
|  |  | 2.29 nM | 13.8 nM | Cc1ccc(-c2cc(N3C[C@H](O)C[C@H]3CO)ncc2N(C)C(=O)C(C)(C)c2cc(C(F)(F)F)cc(C(F)(F)F)c2)cc1F [Example 210, (2S,4R)-2-(3,5-Bis-trifluoromethyl-phenyl)-N-[4-(3-fluoro-4-methyl-phenyl)-6-(4-hydroxy-2-hydroxymethyl-pyrrolidin-1-yl)-pyridin-3-yl]-N-methyl-isobutyramide] |
|  |  | 1.66 nM | 15.5 nM | Cc1cc(-c2cc(N3C[C@H](O)C[C@H]3CO)ncc2N(C)C(=O)C(C)(C)c2cc(C(F)(F)F)cc(C(F)(F)F)c2)ccc1F [Example 211, (2S,4R)-2-(3,5-Bis-trifluoromethyl-phenyl)-N-[4-(4-fluoro-3-methyl-phenyl)-6-(4-hydroxy-2-hydroxymethyl-pyrrolidin-1-yl)-pyridin-3-yl]-N-methyl-isobutyramide] |
